# Assay results from ChEMBL document CHEMBL1155822, “Inhibition of acetylcholinesterase, beta-amyloid aggregation, and NMDA receptors in Alzheimer's disease: a promising direction for the multi-target-directed ligands gold rush” (J Med Chem, 2008).
# What was measured:
# SH-SY5Y = test: Antioxidant activity against tert-butyl hydroperoxide-induced ROS evoked cell death in human SH-SY5Y cells; format: functional, cell-based
# [1] = biological target: Glutamate NMDA receptor; GRIN1/GRIN2B (Homo sapiens, UniProt Q05586+Q13224)
# Chain of Glutamate NMDA receptor; GRIN1/GRIN2B (Q13224 whole entry, other chains not shown): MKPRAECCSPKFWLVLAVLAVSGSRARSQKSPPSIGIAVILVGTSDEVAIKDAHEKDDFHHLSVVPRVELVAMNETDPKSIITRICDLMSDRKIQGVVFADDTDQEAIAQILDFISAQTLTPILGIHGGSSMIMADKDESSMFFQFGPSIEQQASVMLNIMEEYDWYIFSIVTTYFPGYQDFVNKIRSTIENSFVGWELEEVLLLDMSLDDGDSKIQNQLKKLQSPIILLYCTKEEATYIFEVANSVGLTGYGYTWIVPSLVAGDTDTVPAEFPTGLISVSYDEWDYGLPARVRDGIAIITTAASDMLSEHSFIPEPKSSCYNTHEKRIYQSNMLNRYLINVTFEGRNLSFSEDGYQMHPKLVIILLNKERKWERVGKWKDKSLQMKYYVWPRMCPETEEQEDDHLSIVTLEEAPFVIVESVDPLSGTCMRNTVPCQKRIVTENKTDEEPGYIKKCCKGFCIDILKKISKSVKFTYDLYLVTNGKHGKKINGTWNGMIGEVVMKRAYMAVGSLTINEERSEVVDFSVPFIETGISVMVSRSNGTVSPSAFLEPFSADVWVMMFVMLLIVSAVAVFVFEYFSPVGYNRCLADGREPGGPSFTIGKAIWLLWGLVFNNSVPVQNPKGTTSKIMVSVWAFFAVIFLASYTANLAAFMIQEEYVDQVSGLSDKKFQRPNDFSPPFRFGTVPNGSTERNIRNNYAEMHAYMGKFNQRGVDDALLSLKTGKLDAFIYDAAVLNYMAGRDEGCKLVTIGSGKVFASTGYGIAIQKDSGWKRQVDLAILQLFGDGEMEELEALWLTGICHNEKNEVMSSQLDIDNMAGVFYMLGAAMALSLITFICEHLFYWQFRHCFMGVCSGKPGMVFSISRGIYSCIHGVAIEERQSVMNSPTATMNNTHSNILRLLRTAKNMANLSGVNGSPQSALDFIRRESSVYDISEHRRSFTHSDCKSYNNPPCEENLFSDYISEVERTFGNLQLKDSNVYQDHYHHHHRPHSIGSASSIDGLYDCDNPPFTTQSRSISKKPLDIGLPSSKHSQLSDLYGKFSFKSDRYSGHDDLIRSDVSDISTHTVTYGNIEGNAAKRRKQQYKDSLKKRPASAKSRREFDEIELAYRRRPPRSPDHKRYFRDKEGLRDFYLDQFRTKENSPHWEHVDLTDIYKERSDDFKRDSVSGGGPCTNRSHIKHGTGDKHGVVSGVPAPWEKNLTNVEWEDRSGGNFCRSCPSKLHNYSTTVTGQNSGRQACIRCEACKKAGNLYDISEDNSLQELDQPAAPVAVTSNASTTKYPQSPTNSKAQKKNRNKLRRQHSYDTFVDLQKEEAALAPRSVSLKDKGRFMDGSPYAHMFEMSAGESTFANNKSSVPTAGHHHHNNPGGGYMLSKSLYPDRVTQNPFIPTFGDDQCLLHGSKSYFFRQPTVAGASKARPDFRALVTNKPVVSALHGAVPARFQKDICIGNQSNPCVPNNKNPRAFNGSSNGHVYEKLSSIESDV
# Description: Inhibition of NMDA NR1/NR2B receptor expressed in xenopus oocytes assessed as inhibition of NMDA and glycine-induced current response by two-electrode voltage clamp assay
# Acetylcholinesterase = Acetylcholinesterase (Homo sapiens, UniProt P22303)
# Chain of Acetylcholinesterase (P22303 whole entry): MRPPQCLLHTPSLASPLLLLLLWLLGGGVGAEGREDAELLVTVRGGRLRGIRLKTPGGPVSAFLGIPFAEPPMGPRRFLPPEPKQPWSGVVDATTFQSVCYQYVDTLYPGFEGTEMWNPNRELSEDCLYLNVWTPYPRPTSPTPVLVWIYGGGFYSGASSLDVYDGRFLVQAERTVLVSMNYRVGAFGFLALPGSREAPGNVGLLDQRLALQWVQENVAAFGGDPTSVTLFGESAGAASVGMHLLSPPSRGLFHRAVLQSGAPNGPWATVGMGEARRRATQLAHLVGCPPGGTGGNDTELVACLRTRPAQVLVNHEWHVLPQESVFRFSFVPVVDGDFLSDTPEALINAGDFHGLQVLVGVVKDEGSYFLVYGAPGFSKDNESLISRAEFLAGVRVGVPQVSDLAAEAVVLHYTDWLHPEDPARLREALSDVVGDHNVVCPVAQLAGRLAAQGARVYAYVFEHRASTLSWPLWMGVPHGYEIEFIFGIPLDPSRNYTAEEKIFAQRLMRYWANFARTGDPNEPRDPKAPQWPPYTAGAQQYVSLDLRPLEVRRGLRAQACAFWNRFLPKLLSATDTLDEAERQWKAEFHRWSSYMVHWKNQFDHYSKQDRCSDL
# Description: Inhibition of human recombinant AChE by Ellman's method
# Cholinesterase = Cholinesterase (Homo sapiens, UniProt P06276); test: Inhibition of human serum BChE by Ellman's method
# Chain of Cholinesterase (P06276 whole entry): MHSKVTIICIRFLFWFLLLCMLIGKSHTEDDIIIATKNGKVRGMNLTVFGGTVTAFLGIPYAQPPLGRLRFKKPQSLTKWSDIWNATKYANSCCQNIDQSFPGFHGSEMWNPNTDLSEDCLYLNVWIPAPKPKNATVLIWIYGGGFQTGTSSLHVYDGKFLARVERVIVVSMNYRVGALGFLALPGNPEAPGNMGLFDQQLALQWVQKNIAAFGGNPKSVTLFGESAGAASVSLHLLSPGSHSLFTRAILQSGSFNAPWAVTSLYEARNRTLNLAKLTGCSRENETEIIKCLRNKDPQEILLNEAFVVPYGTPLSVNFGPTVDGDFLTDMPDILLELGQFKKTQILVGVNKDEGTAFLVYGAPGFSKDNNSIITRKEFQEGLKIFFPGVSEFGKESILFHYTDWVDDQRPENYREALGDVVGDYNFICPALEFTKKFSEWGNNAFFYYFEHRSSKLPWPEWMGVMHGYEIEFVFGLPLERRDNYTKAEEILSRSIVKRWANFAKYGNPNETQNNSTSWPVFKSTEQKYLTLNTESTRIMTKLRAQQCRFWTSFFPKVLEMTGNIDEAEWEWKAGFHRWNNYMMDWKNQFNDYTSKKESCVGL
smiles,measurement,setting,value
Clc1ccc2c(NCCCNCCCOc3cccc4[nH]c5ccccc5c34)c3c(nc2c1)CCCC3 [CARBACRINE],IC50,SH-SY5Y,23 µM
same,IC50,[1],0.74 µM
same,IC50,Acetylcholinesterase,0.00215 µM
same,IC50,Cholinesterase,0.296 µM
Clc1ccc2c(NCCCNCCCCCCOc3cccc4[nH]c5ccccc5c34)c3c(nc2c1)CCCC3,IC50,[1],13 µM
same,IC50,Acetylcholinesterase,0.00257 µM
same,IC50,Cholinesterase,0.137 µM
Clc1ccc2c(NCCCNCCCCCOc3cccc4[nH]c5ccccc5c34)c3c(nc2c1)CCCC3,IC50,[1],18.2 µM
same,IC50,Acetylcholinesterase,0.00154 µM
same,IC50,Cholinesterase,0.189 µM
Oc1cccc2[nH]c3ccccc3c12,IC50,SH-SY5Y,0.07 µM
Clc1ccc2c(NCCCNCCCCOc3cccc4[nH]c5ccccc5c34)c3c(nc2c1)CCCC3,IC50,[1],30.3 µM
same,IC50,Acetylcholinesterase,0.00165 µM
same,IC50,Cholinesterase,0.211 µM
Cc1c(C)c2c(c(C)c1O)CCC(C)(C(=O)O)O2 (stereo not given) [TROLOX],IC50,SH-SY5Y,49.6 µM
